Test results reported in ChEMBL document CHEMBL5346892, “Design and synthesis of benzochromene derivatives as AcrB inhibitors for the reversal of bacterial multidrug resistance” (Eur J Med Chem, 2023).
Calls of active or inactive are those of the source. The rule behind the calls is not given here. Peptide text beside a SMILES is read from it.

Legend:
[1] = system: Escherichia coli; experiment: Synergistic antibacterial activity against wild type Escherichia coli BW25113 assessed as minocycline MIC at 8 microg/ml incubated for 18 hrs in presence of colistin by broth dilution assay; assay type: functional; conditions: dose 8 µg/ml
[2] = Toxicity in Caenorhabditis elegans assessed as survival rate at 128 microg/ml measured after 72 hrs by light microscopic analysis; conditions: at 128 µg/mL
[3] = system: Escherichia coli; experiment: Synergistic antibacterial activity against wild type Escherichia coli BW25113 assessed as erythromycin MIC at 16 microg/ml incubated for 18 hrs in presence of colistin by broth dilution assay; assay type: functional; conditions: dose 16 µg/ml
[4] = system: Escherichia coli; experiment: Synergistic antibacterial activity against wild type Escherichia coli BW25113 assessed as levofloxacin MIC at 64 microg/ml incubated for 18 hrs by broth dilution assay; assay type: functional; conditions: dose 64 µg/ml
[5] = system: Escherichia coli; experiment: Synergistic antibacterial activity against wild type Escherichia coli BW25113 assessed as levofloxacin MIC at 64 microg/ml incubated for 18 hrs in presence of colistin by broth dilution assay; assay type: functional; conditions: dose 64 µg/ml
[6] = system: Escherichia coli; experiment: Synergistic antibacterial activity against wild type Escherichia coli BW25113 assessed as minocycline MIC at 128 microg/ml incubated for 18 hrs by broth dilution assay; assay type: functional; conditions: dose 128 µg/ml
[7] = system: Escherichia coli; experiment: Synergistic antibacterial activity against wild type Escherichia coli BW25113 assessed as minocycline MIC at 4 microg/ml incubated for 18 hrs in presence of colistin by broth dilution assay; assay type: functional; conditions: dose 4 µg/ml
[8] = system: Escherichia coli; experiment: Synergistic antibacterial activity against wild type Escherichia coli BW25113 assessed as minocycline MIC at 64 microg/ml incubated for 18 hrs by broth dilution assay; assay type: functional; conditions: dose 64 µg/ml
[9] = system: Escherichia coli; experiment: Synergistic antibacterial activity against wild type Escherichia coli BW25113 assessed as erythromycin MIC at 8 microg/ml incubated for 18 hrs by broth dilution assay; assay type: functional; conditions: dose 8 µg/ml
[10] = system: Escherichia coli; experiment: Synergistic antibacterial activity against wild type Escherichia coli BW25113 assessed as levofloxacin MIC at 32 microg/ml incubated for 18 hrs in presence of colistin by broth dilution assay; assay type: functional; conditions: dose 32 µg/ml
[11] = system: Escherichia coli; experiment: Synergistic antibacterial activity against wild type Escherichia coli BW25113 assessed as minocycline MIC at 16 microg/ml incubated for 18 hrs by broth dilution assay; assay type: functional; conditions: dose 16 µg/ml
[12] = system: Escherichia coli; experiment: Synergistic antibacterial activity against wild type Escherichia coli BW25113 assessed as minocycline MIC at 32 microg/ml incubated for 18 hrs by broth dilution assay; assay type: functional; conditions: dose 32 µg/ml
[13] = system: Escherichia coli; experiment: Synergistic antibacterial activity against wild type Escherichia coli BW25113 assessed as minocycline MIC at 32 microg/ml incubated for 18 hrs in presence of colistin by broth dilution assay; assay type: functional; conditions: dose 32 µg/ml
[14] = system: Escherichia coli; experiment: Synergistic antibacterial activity against wild type Escherichia coli BW25113 assessed as levofloxacin MIC at 8 microg/ml incubated for 18 hrs in presence of colistin by broth dilution assay; assay type: functional; conditions: dose 8 µg/ml
[15] = system: Escherichia coli; experiment: Synergistic antibacterial activity against wild type Escherichia coli BW25113 assessed as erythromycin MIC at 128 microg/ml incubated for 18 hrs by broth dilution assay; assay type: functional; conditions: dose 128 µg/ml
[16] = system: Cell membrane; experiment: Induction of inner membrane permeabilization in Escherichia coli BW25113 assessed as increase in fluorescence intensity at 64 microg/ml incubated for 10 mins by DiOC2 dye based fluorimeter analysis; assay type: subcellular; conditions: dose 64.0 µg/ml
[17] = Hemolytic activity in mouse RBC assessed as hemolysis at 4 to 256 microg/ml incubated for 1 hr by microplate reader analysis; assay type: toxicity, cell-based, Erythrocyte; conditions: mouse red blood cells (erythrocytes), at 4 to 256 µg/mL, dose 4-256 µg/ml, read-out: Activity
[18] = system: Escherichia coli; experiment: Synergistic antibacterial activity against wild type Escherichia coli BW25113 assessed as erythromycin MIC at 32 microg/ml incubated for 18 hrs in presence of colistin by broth dilution assay; assay type: functional; conditions: dose 32 µg/ml
[19] = molecular target: T1, Multidrug efflux pump subunit AcrB (Escherichia coli (strain K12)) (UniProt P31224); experiment: Inhibition of Escherichia coli BW25113 AcrB assessed as inhibition of nile red efflux at 50 uM incubated for 15 mins
T1 sequence (whole entry): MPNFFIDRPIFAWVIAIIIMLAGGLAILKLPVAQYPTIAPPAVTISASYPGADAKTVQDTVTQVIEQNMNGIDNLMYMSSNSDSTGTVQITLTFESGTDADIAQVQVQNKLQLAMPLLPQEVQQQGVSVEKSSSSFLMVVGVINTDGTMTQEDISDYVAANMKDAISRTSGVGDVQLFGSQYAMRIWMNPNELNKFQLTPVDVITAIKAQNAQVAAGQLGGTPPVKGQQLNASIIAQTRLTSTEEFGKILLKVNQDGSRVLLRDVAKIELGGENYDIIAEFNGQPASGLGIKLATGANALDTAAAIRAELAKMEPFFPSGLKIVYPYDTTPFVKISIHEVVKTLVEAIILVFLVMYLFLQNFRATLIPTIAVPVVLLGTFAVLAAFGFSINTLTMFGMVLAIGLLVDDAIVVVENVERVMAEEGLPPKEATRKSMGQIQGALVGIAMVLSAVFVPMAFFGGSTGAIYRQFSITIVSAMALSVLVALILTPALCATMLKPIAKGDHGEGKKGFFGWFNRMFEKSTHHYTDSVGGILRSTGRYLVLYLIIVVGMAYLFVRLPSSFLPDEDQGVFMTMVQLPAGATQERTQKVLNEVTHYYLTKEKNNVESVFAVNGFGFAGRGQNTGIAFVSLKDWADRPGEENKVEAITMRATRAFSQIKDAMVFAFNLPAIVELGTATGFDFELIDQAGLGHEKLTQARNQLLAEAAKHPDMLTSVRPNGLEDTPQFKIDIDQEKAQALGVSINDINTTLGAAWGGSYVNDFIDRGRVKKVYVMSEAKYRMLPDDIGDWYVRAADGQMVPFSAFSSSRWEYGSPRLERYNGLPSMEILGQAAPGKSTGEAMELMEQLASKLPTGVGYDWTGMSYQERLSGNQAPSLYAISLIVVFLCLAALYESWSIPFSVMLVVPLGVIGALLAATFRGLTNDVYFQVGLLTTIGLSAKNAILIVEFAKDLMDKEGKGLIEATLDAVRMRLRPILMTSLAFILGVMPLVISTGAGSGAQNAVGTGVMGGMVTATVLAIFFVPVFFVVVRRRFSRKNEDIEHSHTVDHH

[20] = system: Escherichia coli; experiment: Synergistic antibacterial activity against wild type Escherichia coli BW25113 assessed as fold decrease in levofloxacin MIC at 8 microg/ml incubated for 18 hrs by checkboard based microplate reader analysis; assay type: functional; conditions: dose 8 µg/ml
[21] = system: Escherichia coli; experiment: Synergistic antibacterial activity against wild type Escherichia coli BW25113 assessed as erythromycin MIC at 16 microg/ml incubated for 18 hrs by broth dilution assay; assay type: functional; conditions: dose 16 µg/ml
[22] = system: Escherichia coli; experiment: Synergistic antibacterial activity against wild type Escherichia coli BW25113 assessed as levofloxacin MIC at 16 microg/ml incubated for 18 hrs in presence of colistin by broth dilution assay; assay type: functional; conditions: dose 16 µg/ml
[23] = system: Escherichia coli; experiment: Synergistic antibacterial activity against wild type Escherichia coli BW25113 assessed as levofloxacin MIC at 8 microg/ml incubated for 18 hrs by broth dilution assay; assay type: functional; conditions: dose 8 µg/ml
[24] = system: Escherichia coli; experiment: Synergistic antibacterial activity against wild type Escherichia coli BW25113 assessed as minocycline MIC at 16 microg/ml incubated for 18 hrs in presence of colistin by broth dilution assay; assay type: functional; conditions: dose 16 µg/ml
[25] = system: Escherichia coli; experiment: Synergistic antibacterial activity against wild type Escherichia coli BW25113 assessed as erythromycin MIC at 8 microg/ml incubated for 18 hrs in presence of colistin by broth dilution assay; assay type: functional; conditions: dose 8 µg/ml
[26] = system: Escherichia coli; experiment: Synergistic antibacterial activity against wild type Escherichia coli BW25113 assessed as levofloxacin MIC at 32 microg/ml incubated for 18 hrs by broth dilution assay; assay type: functional; conditions: dose 32 µg/ml
[27] = system: Escherichia coli; experiment: Synergistic antibacterial activity against wild type Escherichia coli BW25113 assessed as levofloxacin MIC at 128 microg/ml incubated for 18 hrs by broth dilution assay; assay type: functional; conditions: dose 128 µg/ml
[28] = system: Escherichia coli; experiment: Synergistic antibacterial activity against wild type Escherichia coli BW25113 assessed as erythromycin MIC at 64 microg/ml incubated for 18 hrs in presence of colistin by broth dilution assay; assay type: functional; conditions: dose 64 µg/ml
[29] = system: Escherichia coli; experiment: Synergistic antibacterial activity against wild type Escherichia coli BW25113 assessed as minocycline MIC at 64 microg/ml incubated for 18 hrs in presence of colistin by broth dilution assay; assay type: functional; conditions: dose 64 µg/ml
[30] = system: Escherichia coli; experiment: Synergistic antibacterial activity against wild type Escherichia coli BW25113 assessed as erythromycin MIC at 32 microg/ml incubated for 18 hrs by broth dilution assay; assay type: functional; conditions: dose 32 µg/ml
[31] = system: Escherichia coli; experiment: Synergistic antibacterial activity against wild type Escherichia coli BW25113 assessed as erythromycin MIC at 64 microg/ml incubated for 18 hrs by broth dilution assay; assay type: functional; conditions: dose 64 µg/ml
[32] = system: Escherichia coli; experiment: Synergistic antibacterial activity against wild type Escherichia coli BW25113 assessed as levofloxacin MIC at 16 microg/ml incubated for 18 hrs by broth dilution assay; assay type: functional; conditions: dose 16 µg/ml
[33] = system: Escherichia coli; experiment: Synergistic antibacterial activity against wild type Escherichia coli BW25113 assessed as minocycline MIC at 8 microg/ml incubated for 18 hrs by broth dilution assay; assay type: functional; conditions: dose 8 µg/ml
[34] = system: Escherichia coli; experiment: Synergistic antibacterial activity against wild type Escherichia coli BW25113 assessed as minocycline MIC at 128 microg/ml incubated for 18 hrs in presence of colistin by broth dilution assay; assay type: functional; conditions: dose 128 µg/ml
[35] = system: Escherichia coli; experiment: Synergistic antibacterial activity against wild type Escherichia coli BW25113 assessed as fold decrease in erythromycin MIC at 128 microg/ml incubated for 18 hrs by checkboard based microplate reader analysis; assay type: functional; conditions: dose 128 µg/ml
[36] = system: Escherichia coli; experiment: Synergistic antibacterial activity against wild type Escherichia coli BW25113 assessed as erythromycin MIC at 128 microg/ml incubated for 18 hrs in presence of colistin by broth dilution assay; assay type: functional; conditions: dose 128 µg/ml
[37] = system: Escherichia coli; experiment: Synergistic antibacterial activity against wild type Escherichia coli BW25113 assessed as levofloxacin MIC at 128 microg/ml incubated for 18 hrs in presence of colistin by broth dilution assay; assay type: functional; conditions: dose 128 µg/ml

Compound | MIC [1] [µg/mL] | survival at 72 h, 128 microg/ml [2] [%] | MIC [3] [µg/mL] | MIC [4] [ng/mL] | MIC [5] [µg/mL] | MIC [6] [µg/mL] | MIC [8] [µg/mL] | MIC [9] [µg/mL] | MIC [10] [µg/mL] | MIC [11] [µg/mL] | MIC [12] [µg/mL] | MIC [13] [µg/mL] | MIC [15] [µg/mL] | MIC [21] [µg/mL] | MIC [23] [µg/mL] | MIC [26] [ng/mL] | MIC [27] [ng/mL] | MIC [30] [µg/mL] | MIC [31] [µg/mL] | MIC [32] [ng/mL] | further results
CC1(C)CCc2c(C(=O)N3CCOCC3)cc3c(OCCCSc4ccc(N)cc4)cccc3c2O1 | 1 | 90 | 8 | 8 | 0.008 | 1 | 1 | 64 | 0.016 | 1 | 1 | 1 | 64 | 64 | 0.008 | 8 | 8 | 64 | 64 | 8 | MIC [7]: 1 µg/mL; MIC [14]: 0.032 µg/mL; Activity [16]: inactive; hemolysis at 1 h [17]: < 5%; MIC [18]: 8 µg/mL; inhibition [19]: Active; fold change (FC) [20]: 4; MIC [22]: 0.016 µg/mL; MIC [24]: 1 µg/mL; MIC [25]: 8 µg/mL; MIC [28]: 8 µg/mL; MIC [29]: 0.5 µg/mL
N=C(N)NCCC[C@H](NC(=O)[C@@H](N)Cc1ccccc1)C(=O)Nc1ccc2ccccc2c1 [PABETAN] (HELM PEPTIDE1{F.R.[c1ccc2cc(N[*:1])ccc2c1]}$$$$V2.0) | – | – | – | 8 | – | 0.25 | 0.5 | 16 | – | 0.5 | 0.5 | – | 2 | 8 | 0.016 | 8 | 1 | 4 | 4 | 8 | MIC [33]: 0.5 µg/mL
CC1(C)CCc2c(C(=O)N3CCOCC3)cc3c(OCCOc4ccc([N+](=O)[O-])cc4)cccc3c2O1 | 1 | 90 | 8 | 32 | 0.032 | 2 | 2 | 64 | 0.032 | 2 | 2 | 1 | 16 | 64 | 0.032 | 32 | 32 | 64 | 32 | 32 | MIC [33]: 2 µg/mL; MIC [34]: 0.5 µg/mL; MIC [14]: 0.032 µg/mL; fold change (FC) [35]: 4; Activity [16]: inactive; hemolysis at 1 h [17]: < 5%; MIC [36]: 4 µg/mL; MIC [18]: 8 µg/mL; MIC [22]: 0.032 µg/mL; MIC [24]: 1 µg/mL; MIC [25]: 8 µg/mL; MIC [28]: 8 µg/mL; MIC [29]: 0.5 µg/mL; MIC [37]: 0.032 µg/mL
CC1(C)S[C@@H]2[C@H](NC(=O)[C@H](N)c3ccccc3)C(=O)N2[C@H]1C(=O)O [AMPICILLIN] | – | 99 | – | – | – | – | – | – | – | – | – | – | – | – | – | – | – | – | – | – | –
